We go through 1 compound from patent US4743589A, “Treatment of endometriosis” (Roussel UCLAF, priority 1979, dated 1988).

Test [1] has as its system testicular steroidogensis. The experiment in a line: inhibitory activity against testicular steroidogenesis in men in good health (seric LH, FSH and steroids by radioimmunoassay). The format is in vivo. Here is the method:
The said product was administered intranasally at a dose of 500 μg in a few drops of distilled water at 8 A.M. on the third day of the test. For 2 days prior to the treatment and for 6 days after the treatment, samples of blood were taken daily at 8 A.M., 3 P.M. and 10 P.M. On the day of administration of the LH-RH agonist, blood samples were taken at 11 A.M. and 6 P.M.
The series concentrations of LH and FSH were measured by radioimmuno-logic dosages with double antibodies and the antibodies for measuring LH and FSH were furnished by the National Pituitary Agency of N.I.H. in Bethesda, Md. The seric concentrations of steroids was measured by radioimmuno-logic dosages in which one ml of serum was extracted with ether and the steroids were separated on a LH-20 column before measuring with radioimmuno-logic dosages. The radioimmuno-logic dosage results were determined by a program derived from model II of Rodbard et al [Second Karolinska Symposium on Research Methods in Reproductive Endrocrinology, Diczfalusky Editor, Copenhague (1970), p. 79-103]. The statistical significance was determined by the "multiple level test" of Duncan-Kramer [Kramer, Biometrics, Vol. 12 (1956), p. 307]. The results are shown in the graphs on sheet 1 of the Figures filed herewith.

Test [2] concerns testicular steroidogenosis. Description: inhibitory activity on testicular steroidogenosis in a patient with prostate cancer. The format is in vivo, human. To be noted: intranasal 500 μg twice a day. The text has this:
The inhibitory activity of [D Ser (tbu)^6 des Gly NH2^10 ] […] The results are reported in the graphs of sheet 2 of the Figures.

The subject of another test is ovarian steroidogenosis. The experiment in a line: inhibitory activity on ovarian steroidogenosis in women (seric progesterone by radioimmunoassay). The class given is in vivo. To be noted: for seric level of progesterone, reduction compared to the controls: 500 μg intranasal at 8 A.M. and 5 P.M. of one luteal-phase day, typical case (sheet 3); for level of progesterone as % of pretreatment cycles (100%): 12 cycles. How it is done:
The study was conducted for 6 consecutive cycles consisting of 2 pretreatment cycles, 2 treatment cycles and 2 post-treatment cycles. […] Daily blood samples were taken between 4 and 6 P.M. to measure seric levels of LH, FSH, progesterone and estradiol which were determined by radioimmuno-logictests with double antibodies. The antibodies to measure LH and FSH were furnished by the National Pituitory Agency of N.I.H. of Bethesda, Md.
Estradiol and progesterone were measured with highly specific antibodies developed against 7-(0-carboxymethyl)-oxime of estradiol and 12-(0-carboxymethyl)-oxime of progesterone, respectively [3H] 17β-estradiol and ^125 I-progesterone-12-[0-carboxymethyl)-oxime]used as tracers. The serum was extracted with benzene and the steroids were separated with a LH-20 column before the determination. The radioimmunological results were exploited by the program derived from model II of Rodbard and Lewald as in Example 1 and the statistical significance was measured by the multiple level test of Ducan-Kramer of Example 1. The results shown in the graphs of sheets 3 to 5 of the Figures.

Where [3] appears, read: 12 cycles of treatment (sheet 5).

SMILES strings stand for the structures.

For the compound `CCNC(=O)[C@@H]1CCCN1C(=O)[C@H](CCCNC(=N)N)NC(=O)[C@H](CC(C)C)NC(=O)[C@@H](COC(C)(C)C)NC(=O)[C@H](Cc1ccc(O)cc1)NC(=O)[C@H](CO)NC(=O)[C@H](Cc1c[nH]c2ccccc12)NC(=O)[C@H](Cc1c[nH]cn1)NC(=O)[C@@H]1CCC(=O)N1` [[D Ser (tbu)^6 des Gly NH2^10]LH-RH ethylamide], in test [1] (human, single intranasal dose 500 μg), the “day after administration on which the steroid level returned to normal” value is given as “fourth day”. Also, the “time to return of LH and FSH to normal levels after administration” value in test [1] (men, intranasal 500 μg) was 8 to 12 h. In test [1] (men, intranasal 500 μg, day after treatment, different subjects, elevated from 20 to 35), this compound yielded a seric concentration of 17β-estradiol after the deferred elevation of 100 to 250 pg/mL. For the same compound, the “seric concentration of pregnenolone, 17-OH-pregnenolone, progesterone, 17-OH-progesterone, Δ5-androstene-3β,17β-diol and testosterone on the day of treatment” value in test [1] (men, intranasal 500 μg, day of treatment) is recorded as “increased”. For the same compound, the “level of androgenic steroids in plasma” value in test [2] is listed as “diminution”. Besides, in test [2] (two weeks of treatment), the level of testosterone result is given as “stabilized at a very low level”. Also, the “seric level of progesterone, reduction compared to the controls” value was determined as 13% with ovarian steroidogenosis (first cycle of treatment) and 34% with ovarian steroidogenosis (second cycle of treatment). The “level of progesterone, reduction compared to the controls” value in the test on ovarian steroidogenosis (setting [3]) is reported as 46%. Also, the “scale (range) of the level of progesterone compared to the controls” value with ovarian steroidogenosis (setting [3]) was 13 to 127%. Besides, the figures for the “level of progesterone as % of pretreatment cycles (100%)” value with ovarian steroidogenosis (cycles of post-treatment) and in the test with ovarian steroidogenosis (cycles of treatment) were 99% and 46%, respectively.
